Patent US8507488B2, “Fused nitrogen containing heterocycles and compositions thereof as kinase inhibitors” (IRM LLC, priority 2008, dated 2013)

Experiments:
Tel-TrkA = molecular target: T1, Tel-TrkA (Homo sapiens, UniProt P04629); assay: Inhibition of proliferation of Ba/F3 cells expressing Tel-TrkA (BaF3/Tel-TrkA, luciferase/Bright Glo readout); format: cell-based; details: read-out: IC50 in BaF3/Tel-TrkA CTG cellular assay
T1 construct: dimerization domain of Tel (ETV6) transcription factor (fusion partner, human ETV6 P41212); expressed in transfected cells; host or cells: luciferase expressing Ba/F3 murine hematopoietic progenitor cells; the other entry of the earlier key: ETV6 (P41212, Transcription factor ETV6)

Tel-TrkB = molecular target: T2, Tel-TrkB (Homo sapiens, UniProt Q16620); assay: Inhibition of proliferation of Ba/F3 cells expressing Tel-TrkB (BaF3/Tel-TrkB); format: cell-based; details: BaF3/Tel-TrkB cells; read-out: IC50 in BaF3/Tel-TrkB CTG cellular assay
T2 construct: dimerization domain of Tel (ETV6) transcription factor (fusion partner, human ETV6 P41212); expressed in transfected cells; host or cells: luciferase expressing Ba/F3 murine hematopoietic progenitor cells; the other entry of the earlier key: ETV6 (P41212, Transcription factor ETV6)
Procedure, shortened: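 Luciferase-expressing murine Ba/F3 cells transformed with human Tel-TrkA or Tel-TrkB, plated at 2000 cells/well in IL3-free RPMI/10% FBS. Exposed to 12 concentrations of 3-fold serially diluted compound for 48 hours at 37° C, 5% CO2. Bright Glo luminescence read-out, with IC50 from linear regression of percent inhibition.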

[1] = molecular target: T3, full length rTrkA and mNGF (Rattus norvegicus, UniProt P35739); assay: Inhibition of proliferation of Ba/F3 cells co-expressing full length rTrkA and mNGF (BaF3/TrkA-NFG); format: cell-based; details: BaF3/TrkA-NFG cells
T3 construct: co-expressing full length rTrkA and mNGF; expressed in transfected cells; host or cells: Ba/F3 cells

parental BaF3 cells = assay: Proliferation of parental (untransformed) Ba/F3 cells maintained with IL3; format: cell-based, murine; details: Mus musculus, BaF3, parental BaF3 cells; read-out: IC50 in BaF3 CTG cellular assay
Procedure, shortened: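 Untransformed murine Ba/F3 cells kept in RPMI/10% FCS with 5 ng/ml murine IL3, plated at 2000 cells/well and exposed to 12 concentrations of compound for 48 h at 37 °C. Viability read by Bright-Glo luciferase luminescence; IC50 from linear regression of % inhibition.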

T3 sequence (P35739 33-799): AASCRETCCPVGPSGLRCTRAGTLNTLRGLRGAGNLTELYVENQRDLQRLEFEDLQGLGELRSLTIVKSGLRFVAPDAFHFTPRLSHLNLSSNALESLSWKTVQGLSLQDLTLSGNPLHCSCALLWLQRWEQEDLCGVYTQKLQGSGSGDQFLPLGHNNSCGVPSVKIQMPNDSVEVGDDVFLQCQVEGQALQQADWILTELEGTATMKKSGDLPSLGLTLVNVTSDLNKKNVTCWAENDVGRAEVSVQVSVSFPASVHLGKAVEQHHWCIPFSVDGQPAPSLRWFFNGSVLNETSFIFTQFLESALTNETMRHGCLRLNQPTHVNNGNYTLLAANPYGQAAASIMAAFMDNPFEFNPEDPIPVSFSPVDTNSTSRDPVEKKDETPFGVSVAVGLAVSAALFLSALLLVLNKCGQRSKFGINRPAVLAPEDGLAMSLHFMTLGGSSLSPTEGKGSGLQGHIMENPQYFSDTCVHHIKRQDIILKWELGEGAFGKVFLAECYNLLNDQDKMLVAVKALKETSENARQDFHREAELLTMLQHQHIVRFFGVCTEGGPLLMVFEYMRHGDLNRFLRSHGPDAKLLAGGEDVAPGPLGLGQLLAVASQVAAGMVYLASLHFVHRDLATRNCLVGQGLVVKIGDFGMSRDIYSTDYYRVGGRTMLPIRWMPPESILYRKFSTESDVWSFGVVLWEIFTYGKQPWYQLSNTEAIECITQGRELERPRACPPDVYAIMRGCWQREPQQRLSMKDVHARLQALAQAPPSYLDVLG
T3 sequence (P01139 122-241 partner): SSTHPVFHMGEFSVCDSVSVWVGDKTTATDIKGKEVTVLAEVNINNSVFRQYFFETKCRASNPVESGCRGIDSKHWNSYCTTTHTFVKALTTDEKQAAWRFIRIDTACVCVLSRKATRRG
T2 sequence (Q16620 538-822 limits assumed): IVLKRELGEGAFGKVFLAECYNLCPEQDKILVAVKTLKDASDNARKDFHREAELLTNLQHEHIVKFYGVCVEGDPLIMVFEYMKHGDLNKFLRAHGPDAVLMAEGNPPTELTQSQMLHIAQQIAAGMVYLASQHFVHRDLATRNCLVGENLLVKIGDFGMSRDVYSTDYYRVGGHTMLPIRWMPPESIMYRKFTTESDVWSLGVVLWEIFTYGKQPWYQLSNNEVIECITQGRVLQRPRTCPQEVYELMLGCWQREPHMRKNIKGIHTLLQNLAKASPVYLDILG
T1 sequence (P04629 510-796 limits assumed): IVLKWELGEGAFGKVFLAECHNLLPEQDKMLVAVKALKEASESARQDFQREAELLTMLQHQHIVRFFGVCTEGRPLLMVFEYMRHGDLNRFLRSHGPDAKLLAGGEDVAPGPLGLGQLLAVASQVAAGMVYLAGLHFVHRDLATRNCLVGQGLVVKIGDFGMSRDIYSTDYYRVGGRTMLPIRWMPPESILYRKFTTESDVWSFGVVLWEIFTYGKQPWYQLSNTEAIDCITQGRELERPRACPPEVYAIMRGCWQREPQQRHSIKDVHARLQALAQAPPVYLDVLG

Row | Compound | IC50 (Tel-TrkA) [nM] | IC50 (Tel-TrkB) [nM] | IC50 in BaF3/TrkA-NFG CTG cellular assay [1] [nM] | IC50 (parental BaF3 cells) [nM]
1 | O[C@@H]1CCN(c2nccc(-c3cccc(-c4cnc5ccc(N6CCC[C@@H]6c6cccc(F)c6)nn45)n3)n2)C1 [Compound 14-4, (R)-1-(4-(6-(6-((R)-2-(3-fluorophenyl)pyrrolidin-1-yl)imidazo[1,2-b]pyridazin-3-yl)pyridin-2-yl)pyrimidin-2-yl)pyrrolidin-3-ol] | 2.2 | 3.3 | 4.2 | 4070
2 | OC1CCN(c2cc(-c3cccc(-c4cnc5ccc(N6CCC[C@@H]6c6cccc(F)c6)nn45)n3)ccn2)CC1 [Compound 16-4, (R)-1-(6-(6-(2-(3-fluorophenyl)pyrrolidin-1-yl)imidazo[1,2-b]pyridazin-3-yl)-2,4′-bipyridin-2′-yl)piperidin-4-ol] | 5.2 | 12 | 13 | 4410
